# From the NIST ThermoML archive (doi:10.1016/j.fluid.2014.07.005)
# Numbers after ± are expanded uncertainties.
# Assay: mn = molality of the nth substance listed, in mol/kg
# Settings: 298.15 K, 101 kPa, Liquid, Rudolph densimeter
compound,measurement,setting,value
[Cl-].[Cl-].[Mg+2] [magnesium chloride] + CO,mass density,m1 = 0.0105,788.19 ± 0.19 kg/m3
same,mass density,m1 = 0.021,789.37 ± 0.19 kg/m3
same,mass density,m1 = 0.0316,790.72 ± 0.19 kg/m3
same,mass density,m1 = 0.0422,791.97 ± 0.19 kg/m3
same,mass density,m1 = 0.0528,793.43 ± 0.19 kg/m3
same,mass density,m1 = 0.0581,794.28 ± 0.2 kg/m3
same,mass density,m1 = 0.0634,795.32 ± 0.2 kg/m3
same,mass density,m1 = 0.0687,796.28 ± 0.19 kg/m3
same,mass density,m1 = 0.074,796.94 ± 0.19 kg/m3
same,mass density,m1 = 0.0794,797.82 ± 0.2 kg/m3
same,mass density,m1 = 0.0847,798.59 ± 0.2 kg/m3
same,mass density,m1 = 0.09,799.4 ± 0.2 kg/m3
same,mass density,m1 = 0.0954,800.16 ± 0.2 kg/m3
"O=[N+]([O-])[O-].O=[N+]([O-])[O-].[Zn+2] [nitric acid, zinc salt] + CO",mass density,m1 = 0.0053,787.73 ± 0.19 kg/m3
same,mass density,m1 = 0.0106,788.43 ± 0.19 kg/m3
same,mass density,m1 = 0.0159,789.11 ± 0.19 kg/m3
same,mass density,m1 = 0.0212,789.81 ± 0.19 kg/m3
same,mass density,m1 = 0.0265,790.47 ± 0.19 kg/m3
same,mass density,m1 = 0.0292,790.79 ± 0.19 kg/m3
same,mass density,m1 = 0.0319,791.13 ± 0.19 kg/m3
same,mass density,m1 = 0.0346,791.46 ± 0.19 kg/m3
same,mass density,m1 = 0.0372,791.79 ± 0.19 kg/m3
same,mass density,m1 = 0.0399,792.11 ± 0.19 kg/m3
same,mass density,m1 = 0.0426,792.44 ± 0.19 kg/m3
same,mass density,m1 = 0.0453,792.76 ± 0.19 kg/m3
same,mass density,m1 = 0.048,793.07 ± 0.19 kg/m3
same,mass density,m1 = 0.0507,793.39 ± 0.19 kg/m3
same,mass density,m1 = 0.0533,793.72 ± 0.19 kg/m3
same,mass density,m1 = 0.0804,796.87 ± 0.19 kg/m3
O=[N+]([O-])[O-].O=[N+]([O-])[O-].[Mg+2] [magnesium nitrate] + CO,mass density,m1 = 0.0067,787.75 ± 0.19 kg/m3
same,mass density,m1 = 0.0135,788.44 ± 0.19 kg/m3
same,mass density,m1 = 0.0203,789.09 ± 0.19 kg/m3
same,mass density,m1 = 0.0271,789.77 ± 0.19 kg/m3
same,mass density,m1 = 0.0339,790.43 ± 0.19 kg/m3
same,mass density,m1 = 0.0373,790.75 ± 0.19 kg/m3
same,mass density,m1 = 0.0407,791.07 ± 0.19 kg/m3
same,mass density,m1 = 0.0441,791.39 ± 0.19 kg/m3
same,mass density,m1 = 0.0475,791.72 ± 0.19 kg/m3
same,mass density,m1 = 0.051,792.03 ± 0.19 kg/m3
same,mass density,m1 = 0.0544,792.33 ± 0.19 kg/m3
same,mass density,m1 = 0.0578,792.66 ± 0.19 kg/m3
same,mass density,m1 = 0.0612,792.95 ± 0.19 kg/m3
same,mass density,m1 = 0.0647,793.26 ± 0.19 kg/m3
same,mass density,m1 = 0.0681,793.56 ± 0.19 kg/m3
